| Structure (SMILES) | melting point [°C] |
| --- | --- |
| C/C(=N\c1ccccc1)c1c(O)c2ccccc2n(-c2ccccc2)c1=O | 184 to 185 |
| C[C@@H](OC(C)(C)C)[C@H](NC(=O)OCC1c2ccccc2-c2ccccc21)C(=O)O | 131 to 134 |
| O=C(Nc1nnc(-c2ccc(Cl)cc2)o1)c1cccc(C(F)(F)F)c1 | 215 to 217 |
| Cc1cccc(NC(=O)c2ccccc2)c1 | 125 |
| Clc1ccc(N2CCNCC2)cc1Cl | 63 |
| N#CCc1c(C#N)c(N)nc(Cl)c1C#N | 257 to 259 |
| CCCOC(=O)C1=C(C)NC(=S)NC1c1cccc([N+](=O)[O-])c1 (stereo not drawn) | 209 |
| CCOC(=O)C1=C(C)NC(=O)NC1c1cccc(OC)c1OC (stereo not drawn) | 195 |
| CC(=O)CCc1cc2c(cc1N=Nc1ccccc1C(=O)O)CCC(C)N2 (stereo not drawn) | 157 |
| O=c1[nH]cc(C(F)(F)F)c(=O)[nH]1 | 316 |
| O=S(=O)(Cl)c1ccc(-c2ccc(Cl)c(Cl)c2)cc1 | 105 to 106 |
| C=CC(C)(CCC=C(C)C)OC(=O)C(C)C (stereo not drawn) | < 25 |
| Cc1cc(C)cc(CC(=O)O)c1 | 101 |
| CCCCCc1ccc(S(=O)(=O)Cl)cc1 | 42 to 44 |
| COc1cccc(O)c1 | -17 |
| CCCCCCCCOc1ccc(N)cc1 | 35 to 39 |
| CCON=C(CC)C1=C(O)CC(c2c(C)cc(C)cc2C)CC1=O (stereo not drawn) | 110 |
| CCOC(=O)Nc1cccc([N+](=O)[O-])c1[N+](=O)[O-] | 102 to 103 |
| N#CC(C#N)=C(C(=O)Cc1ccccc1)c1ccc([N+](=O)[O-])cc1 | 332 to 334 |
| C=CC(=O)N1CCN(C(=O)C=C)CC1 | 93 |
| OC[C@H]1CC[C@H](CO)CC1 | 61 to 66 |
| O=Cc1ccc(Br)cc1F | 61 |
| CC(C)(C)OC(=O)C[C@H]1C[C@@H](CC#N)OC(C)(C)O1 | 65 to 70 |
| Cc1ccc2[nH]ccc2c1 | 60 |
| CC(C)(C)OC(=O)N[C@H](CC(=O)O)Cc1ccncc1 | 142 |
| CCc1c(O)c(=O)ccn1N1CCOCC1 | 258 |

| Structure (SMILES) | melting point [°C] |
| --- | --- |
| COc1ccc(C(=O)OC(COc2ccc(C=CC(=O)c3ccccc3)cc2)COc2ccc(C(=O)C=Cc3ccccc3)cc2)cc1 (stereo not drawn) | 74 |
| CCC(O)CO (stereo not drawn) | -50 |
| Cc1cccc2c1C(=O)OC2O (stereo not drawn) | 117 |
| Cc1cc(Cc2cc(C)cc(C(C)(C)C)c2O)c(O)c(C(C)(C)C)c1 | 123 |
| COC(=O)c1ccc2cc[nH]c2c1 | 79 |
| CC(Cl)C(C)(C)C (stereo not drawn) | -1 |
| CCOC(=O)c1c(SC)nn(S(=O)(=O)c2ccc(OC)cc2)c1N | 143 to 145 |
| ClCCC(Cl)Cl | -59 |
| Clc1cn2ccsc2n1 | 85 |
| O=Cc1cc([N+](=O)[O-])ccc1Cl | 79 |
| CC12C=CC(=O)C=C1CCC1C2C(O)CC2(C)C1CCC2(O)C(=O)COC(=O)CCCc1ccc(N(CCCl)CCCl)cc1 (stereo not drawn) | 164 |
| Cc1ccc(N=C(Nc2ccc(C)cc2)c2cc(C(C)(C)C)c(O)c(C(C)(C)C)c2)cc1 | 207 |
| Ic1ccc(-c2ccc(I)cc2)cc1 | 207 |
| Cc1cc(N=Nc2ccc(N=Nc3ccccc3)cc2)c(C(C)C)cc1N=Nc1ccc(N=Nc2ccccc2)cc1 | 226 |
| O=Cc1ccnc(Cl)c1 | 47.5 |
| C=CCOc1ccc2c(=O)cc(C(=O)OCC)oc2c1CCC | 84 to 86 |
| CSCC[C@@H](NC(=O)OC(C)(C)C)C(=O)O | 47 to 50 |
| CC(=O)Nc1ccc(S(=O)(=O)Cl)cc1 | 149 |
| CC12CCC(O)CC1CCC1C2CCC2(C)C1CCC2(O)C#Cc1ccccc1 (stereo not drawn) | 120 to 123 |
| O=C(NC(=O)c1ccccc1)c1ccccc1 | 152 |
| C/C(=N\O)C1CC2(C)CCC1C2(C)C (stereo not drawn) | 95.5 |
| CC1CCCC1=O (stereo not drawn) | -75 |
| CC(C)(C)NCC(O)COc1cccc2c1CC(O)C(O)C2 (stereo not drawn) | 124 |
| Cc1nc(/C(C#N)=C/c2ccc(N(C)C)cc2)sc1/N=N/c1ccc(F)cc1 | 149 |
| CCOC(=O)c1cn[nH]c1 | 77 |
| CCCC(=O)c1cc2cc(Br)cc(Br)c2oc1=O | 200 to 202 |

| Structure (SMILES) | melting point [°C] |
| --- | --- |
| Oc1c2ccccc2cc2ccccc12 | 152 |
| CCCCCCCCCCCC(C)C | -25 |
| CCOC(=O)N1CCN(C(=O)OCC)CC1 | 47 |
| Cc1cc(O)c(C(c2ccc([N+](=O)[O-])cc2)c2c(O)cc(C)oc2=O)c(=O)o1 | 238 to 240 |
| CCOC(=O)c1cc(C)nc(Cl)n1 | 56.5 to 59 |
| CC(=O)Oc1ccccc1/C=C/c1ccccc1 | 56 |
| O=C=Nc1ccc2c(c1)CCO2 | 42 to 43 |
| O=c1c(Nc2ccccc2)c(Nc2ccccc2)c1=O | 270 |
| CCCCCCCCCCCCCCCCCC(=O)Oc1ccccc1 | 52 |
| CCc1ccc2c(c1)CCCC2 | -70 |
| Cn1cnnc1-c1cccc(N)c1 | 158 to 159 |
| Clc1cccc(-c2cccc(Cl)c2)c1 | 29 |
| O=C(/C=C/c1ccc(Cl)cc1Cl)c1ccccc1 | 72.3 |
| Cc1ccc(O)c(N)c1 | 136 |
| Cc1ccc(C#N)c(S(=O)(=O)Cl)c1 | 71 to 73 |
| Cc1cc(C)c2c(c1)CC1CCCCN1C2=O (stereo not drawn) | 102 |
| NNc1c(Cl)cc(Cl)cc1Cl | 142 |
| CC(C)(C)OOC(C)(C)CCC(C)(C)OOC(C)(C)C | 8 |
| Cc1noc(-c2ccccc2)c1CBr | 72 |
| Cc1ccc(S(=O)(=O)NN=Cc2ccccc2[N+](=O)[O-])cc1 | 153 to 156 |
| O=Cc1ccccc1N1CCOCC1 | 45 to 46 |
| O=C(O)C=CC(=O)Nc1ccccc1 | 177 |
| Cc1ccc(CO)c(C)c1 | 22 |
| NC(=O)c1nccnc1C(N)=O | 268 |
| Nc1c(Cl)cc(C(F)(F)F)cc1[N+](=O)[O-] | 66 to 68 |
| N#C/C(=N/Nc1cc(Cl)c(Cl)cc1Cl)c1nc2ccccc2c(=O)[nH]1 | 149 |

| Structure (SMILES) | melting point [°C] |
| --- | --- |
| ON=C(Cl)c1ccc(Cl)cc1Cl | 93 to 95 |
| N=C(N)NC(=N)Nc1ccccc1 | 143 |
| CN1C(CSCC(F)(F)F)Nc2cc(Cl)c(S(N)(=O)=O)cc2S1(=O)=O (stereo not drawn) | 214 |
| NC(=O)C1(N2CCCCC2)CCNCC1 | 129 to 132 |
| O=C1NN(c2ccccc2)C(=O)/C1=C/c1ccccc1 | 275 |
| Cc1ccc(C=O)c2ccccc12 | 31 to 33 |
| COC(=O)C1(S(=O)(=O)c2ccc(Br)cc2)CC1 | 124 |
| COc1cc(C2c3cc4c(c(O)c3CC3COC(=O)C32)OCO4)cc(OC)c1OC (stereo not drawn) | 234 |
| CC(C)(C)C(=O)Nc1ncccc1C(=O)O | 280 |
| Cn1cc(NC(=O)OC(C)(C)C)cc1C(=O)O | 138 to 143 |
| N#Cc1ccc(N)cc1Cl | 118 |
| O=C1C=CC(=O)c2cc3ccccc3cc21 | 223 to 226 |
| Brc1cn[nH]c1 | 94.5 |
| C1=CC2c3ccccc3C1C21CC1 | 43 |
| O=c1[nH]cccc1[N+](=O)[O-] | 232 |
| C=C(Cl)c1ccccc1 | -23 |
| CC(=O)NC(C(=O)O)c1ccccc1 (stereo not drawn) | 197 to 201 |
| NNc1ncc(C(F)(F)F)cc1Cl | 90 to 92 |
| O=S(=O)(Cl)c1ccc(S(=O)(=O)c2ccccc2)s1 | 104 |
| Cc1ccc2ccc(C)nc2c1 | 61 |
| CCCCCCCCc1ccc(O)cc1 | 45 |
| O=C1Nc2ccccc2C12OCCO2 | 125 to 128 |
| CCCCCCCCCCOC(=O)c1ccccc1C(=O)OCCCCCC | -4 |
| O=C(O)c1cnc2n(c1=O)CCS2 | 237 to 238 |
| CS(=O)(=O)c1ccc(C(=O)CBr)cc1 | 126 to 128 |
| CC(C)(C)c1ccc(-c2ccc(Br)cc2)cc1 | 142 |

| Structure (SMILES) | melting point [°C] |
| --- | --- |
| CCOC(=O)C(=CN(O)c1ccccc1)c1ccccc1 | 75 |
| ON=C(c1ccc(F)cc1)c1ccc(F)cc1 | 140 |
| O=C(O)c1cccc(N2CCOCC2)n1 | 127 to 129 |
| O=C(Cl)c1cc(I)ccc1F | 29 |
| COc1ccc(C(N)CCO)cc1 (stereo not drawn) | 82 to 86 |
| Cc1c(C(=O)O)cccc1[N+](=O)[O-] | 184 |
| O=C(CN1CCN(Cc2ccc3c(c2)OCO3)CC1)N1c2ccccc2Sc2ccccc21 | 142 |
| C=Cc1cc(C)ccc1C | -35 |
| O=C(O)CNc1ccccc1 | 128 |
| CN1Cc2c(N)cccc2C(c2ccccc2)C1 (stereo not drawn) | 179 |
| CC(C)C1(C)N=C(c2nc3ccccc3cc2C(=O)O)NC1=O (stereo not drawn) | 224 |
| CCCCCCCCN(CCCCCCCC)CCCCCCCC | 34 |
| c1ccc(C/C(=N\Nc2ccccc2)c2ccc3ccccc3c2)cc1 | 165 to 167 |
| COc1ccc(C(=O)c2cccs2)cc1 | 73 to 76 |
| O=C(CBr)c1ccc2c(c1)OCCO2 | 115 to 116 |
| O=C(O)c1cnc(NCc2ccccc2)s1 | 163 to 164 |
| CC(=O)c1ccc(NC(=O)C(C(F)(F)F)(C(F)(F)F)C(F)(F)F)cc1 | 223 to 225 |
| Cc1ccc(C(N)CC(=O)O)cc1 (stereo not drawn) | 223 to 227 |
| Clc1ccc(COC(Cn2ccnc2)c2ccc(Cl)cc2Cl)cc1 (stereo not drawn) | 86.8 |
| N#Cc1ccc(Cl)cc1N | 161 |
| CCC(C(=O)OC)c1ccccc1 (stereo not drawn) | 77.5 |
| O=C1OC2(c3ccccc31)c1ccc(O)c(Br)c1Oc1c2ccc(O)c1Br | 285 |
| CC(C)(C)OC(=O)N[C@H](CO)Cc1ccccc1 | 97 |
| COc1ccccc1C1(C)CCc2oc3ccc(Cl)cc3c2-c2oc(C)cc21 (stereo not drawn) | 197 to 198 |

From a melting point compilation (Tetko et al.)
